Assay: xn = mol fraction of the nth substance listed

C=CC(=O)OCC + CCCCCCCCCCO
viscosity [mPa·s], 101.3 kPa
Conditions	x1 = 0.0861	x1 = 0.235	x1 = 0.302	x1 = 0.4261	x1 = 0.5383	x1 = 0.7248	x1 = 0.8036	x1 = 0.8763	x1 = 0.9389	x1 = 0.9688
298.15 K	8.526	5.017	3.969	2.618	1.895	1.076	0.86	0.702	0.602	0.563
308.15 K	6.006	3.812	3.085	2.104	1.515	0.898	0.73	–	0.525	0.497

C=CC(=O)OCC + CCCCCCCCO
viscosity [mPa·s], 101.3 kPa
Conditions	x1 = 0.0771	x1 = 0.2017	x1 = 0.2664	x1 = 0.3869	x1 = 0.4933	x1 = 0.6865	x1 = 0.7722	x1 = 0.8504	x1 = 0.9275	x1 = 0.9634
298.15 K	5.444	3.576	2.914	2.043	1.543	0.96	0.785	0.681	0.582	0.546
308.15 K	4.096	2.812	2.301	1.663	1.268	0.825	0.678	0.586	0.507	0.478

C=CC(=O)OCC + CCCCCCCO
viscosity [mPa·s], 101.3 kPa
Conditions	x1 = 0.0736	x1 = 0.1906	x1 = 0.2456	x1 = 0.3599	x1 = 0.4687	x1 = 0.6637	x1 = 0.7551	x1 = 0.8399	x1 = 0.9223	x1 = 0.9662
298.15 K	4.585	3.017	2.513	1.864	1.399	0.923	0.778	0.655	0.576	0.534
308.15 K	3.306	2.411	2.01	1.531	1.18	0.778	0.658	0.564	0.505	0.471

COC(C)(C)C + CCCCCCO
viscosity [mPa·s], 101 kPa
Conditions	x1 = 0.0204	x1 = 0.0304	x1 = 0.0495
298.15 K	4.315	4.175	3.925
303.15 K	–	–	3.395

COCCOCCOCCOCCOC + CCCCCCO
viscosity [mPa·s], 100 kPa
Conditions	x2 = 0.1043	x2 = 0.2031	x2 = 0.3014	x2 = 0.4023	x2 = 0.5043	x2 = 0.6003	x2 = 0.7007	x2 = 0.8057	x2 = 0.8986
293.15 K	3.597	3.447	3.317	3.222	3.167	3.167	3.216	3.482	3.977
298.15 K	3.177	3.048	2.933	2.852	2.8	2.797	2.835	3.049	3.453
303.15 K	2.83	2.716	2.617	2.543	2.494	2.488	2.52	2.688	3.023
308.15 K	2.538	2.438	2.35	2.282	2.237	2.227	2.251	2.387	2.661
313.15 K	2.293	2.204	2.124	2.062	2.019	2.007	2.023	2.131	2.356
318.15 K	2.093	2.012	1.94	1.88	1.845	1.826	1.838	1.926	2.111

Reference: the CheMixHub viscosity set
